As usually defined, the inhibition is how much of the control response was suppressed. A lower inhibition goes with little suppression.

Molecules are shown by their SMILES.

This test addresses T1, Aurora A (Homo sapiens, UniProt O14965).
T1 sequence (O14965 1-403): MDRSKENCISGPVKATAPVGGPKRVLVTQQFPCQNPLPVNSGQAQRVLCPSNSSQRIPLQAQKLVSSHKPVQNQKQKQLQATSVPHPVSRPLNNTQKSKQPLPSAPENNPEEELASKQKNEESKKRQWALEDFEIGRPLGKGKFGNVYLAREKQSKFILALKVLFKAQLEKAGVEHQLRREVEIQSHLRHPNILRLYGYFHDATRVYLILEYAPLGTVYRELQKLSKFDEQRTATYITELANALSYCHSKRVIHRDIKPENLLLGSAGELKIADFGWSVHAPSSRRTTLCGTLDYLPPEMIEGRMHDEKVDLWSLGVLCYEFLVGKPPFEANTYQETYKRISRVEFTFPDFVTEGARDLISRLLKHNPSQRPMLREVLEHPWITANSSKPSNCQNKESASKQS
The test can be described thus: Kinase profiling test. The class given is biochemical. Conditions: stated as inhibition. Here is the method:
The test was performed using the radiolabeled ATP determination method (KINEXUS Bioinformatics Corporation, Vancouver, Canada). The test was performed following the previous reports[13]^,[20].
The three compounds were tested at the same concentration (10 μM) against the same 20 kinases used in the previous report. The test was performed by KINEXUS Bioinformatics Corporation (Vancouver, Canada), following previous reports[13]^,[20].

The compound `COc1cc(C(=O)Nc2c(C#N)c3n(c2C(=O)Nc2ccc(Cl)cc2)CCC3)cc(OC)c1OC` [16d, N-(4-Chlorophenyl)-7-cyano-6-(3,4,5-trimethoxybenzamido) -2,3-dihydro-1H-pyrrolizine-5-carboxamide] registered an inhibition at 10 µM of 14%.

The record behind these values is paper PMC8221158, “Novel pyrrolizines bearing 3,4,5-trimethoxyphenyl moiety: design, synthesis, molecular docking, and biological evaluation as potential multi-target cytotoxic agents” (Journal of Enzyme Inhibition and Medicinal Chemistry, 2021).
